The first experiment deals with normal human melanocyte. Kind of experiment: UVB-induced cell activation inhibition test using normal human melanocyte. Format: cell-based. Conditions: formazan (MTT) production ratio, UVB-irradiated DMSO negative control = 100%; UVB 5 mJ/cm^2; 100 mM in DMSO diluted 1,000 times; conditioned medium of normal human keratinocyte; mean of 3 samples. The protocol: The inhibitory effect of the compounds on the activation of melanocyte by activating factor produced and released from normal human keratinocyte by the ultraviolet B (UVB) was evaluated by using the index of the cell proliferation of normal human melanocyte.
Normal human keratinocyte (Kurabo Industries, Ltd.) were seeded by Humedia-KG2 medium (Kurabo Industries, Ltd.) at a concentration of 10×10^4 cells/well in 24-well plate. Then, cells were cultured for 24 hours.
The compound was dissolved at a concentration of 100 mM in DMSO, which was diluted 1,000 times with Humedia-KG2 medium and used as a sample solution. As for the positive control group, tranexamic acid was dissolved at a concentration of 100 mM in DMSO, which was diluted 1,000 times with Humedia-KG2 medium as a positive control sample solution. As for the negative control group, DMSO was diluted 1,000 times with Humedia-KG2 medium as a negative control sample solution.
The medium of normal human keratinocyte was exchanged with Humedia-KG2 medium (sample solution) containing the compound at a predetermined concentration and cells were cultured for further 24 hours. After that, the medium was exchanged with PBS (phosphate buffered saline), and cells were irradiated with the ultraviolet B (UVB) at 5 mJ/cm^2 by using an ultraviolet lamp (FL20S•E-30/DMR, Toshiba Medical Supply Co., Ltd.) as a light source. After the ultraviolet radiation, PBS was exchanged with the sample solution. Cells were cultured for further 24 hours, and then the conditioned medium was collected. Normal human melanocyte cells were seeded at the concentration of 3×10^4 cells/well in 96-well plate by a medium of Medium 254 (Kurabo Industries, Ltd.). Cells were cultured for 24 hours. After that, the medium was exchanged with the conditioned medium collected from normal human keratinocyte, and cells were cultured for further 24 hours. After 24 hours, the medium was exchanged with Humedia-KG2 medium containing 0.5 mg/mL of 3-(4,5-dimethyl-2-thiazoyl)-2,5-diphenyl-2H-tetrazolium bromide (MTT), and cultured for 3 hour.
The formazan amount was measured by the absorbances at 570 nm and 690 nm of cell lysate lysed with 2-propanol using a microplate reader (Benchmark Plus, Bio-Rad) by subtracting the absorbance at 690 nm from the absorbance at 570 nm.
The inhibitory effect of each compounds on melanocyte proliferation was calculated as the formazan production ratio (%) when the absorbance of negative control group, which was added DMSO and UVB irradiated, was defined as 100%.
Therefore, the small production ratio of formazan means that the inhibitory effect of the compounds is strong against the activation of melanocyte by the melanocyte activating factor released form keratinocyte.
As to `Cc1ccc(C(=O)NC(CCS(=O)(=O)O)C(=O)O)cc1` (racemic) [Compound 6, N-(p-toluoyl)homocysteic acid], the “Melanocyte proliferation ratio Average (%)” value was found to be 71.3%. In the case of `Cc1ccccc1C(=O)N[C@@H](CS(=O)(=O)O)C(=O)O` [L-Isomer of Compound 1, N-(o-Toluoyl)-L-cysteic acid], the “Melanocyte proliferation ratio Average (%)” value is 73.7%. Regarding `Cc1cccc(C(=O)N[C@@H](CS(=O)(=O)O)C(=O)O)c1` [L-Isomer of Compound 2, N-(m-toluoyl)cysteic acid], the “Melanocyte proliferation ratio Average (%)” value was determined as 77.0%. On the same count and under the same terms, the result for `Cc1ccc(C(=O)N[C@@H](CS(=O)(=O)O)C(=O)O)cc1` [L-Isomer of Compound 3, N-(p-toluoyl)cysteic acid] reads 58.4%; that for `COc1ccc(C(=O)N[C@@H](CS(=O)(=O)O)C(=O)O)cc1` [L-Isomer of Compound 4, N-(p-methoxybenzoyl)cysteic acid], 65.6%. On to `O=C(N[C@@H](CS(=O)(=O)O)C(=O)O)c1ccc(-c2ccccc2)cc1` [L-Isomer of Compound 5, N-(4-phenylbenzoyl)cysteic acid], for which the “Melanocyte proliferation ratio Average (%)” value is given as 79.0%.

For the compound `NC[C@H]1CC[C@H](C(=O)O)CC1` [Tranexamic acid, reference compound], the “Melanocyte proliferation ratio Average (%)” value stood at 80.9%.

The next experiment deals with pigmented guinea pigs. The experiment in a line: Ultraviolet ray-induced pigmentation suppression test using guinea pigs. The experiment is classed as in vivo, guinea pig. Conditions: 0.5% (w/v) in ethanol, 30 μL once a day for 6 weeks; L* on 43rd day minus L* before UV (300 mJ/cm^2); average ± standard deviation of 8 animals; solvent control −10.07 ± 0.78. From the text: The hair of the dorsal skin of each of eight pigmented guinea pigs was removed and shaved using an electrical hair clipper and shaver, and each of the sites was covered with a black cloth having a total of four (two on the top and bottom and two on the right and left) irradiation windows with a size of 2×2 cm, and then irradiated with ultraviolet rays of 300 mJ/cm^2 using FL20S•E30 lamp as a light source. The operation was repeated on days 1, 3, 5, and 8 after the start of the test to induce pigmentation on the four test sites. Compound 3 was dissolved in ethanol at a concentration of 0.5% (w/v) to prepare samples for application. Further, as a control, ethanol was used alone as a sample for application. On the 1st day of the test after the ultraviolet radiation, the application of samples was started. […] The skin brightness (L* value) of each of the test sites was measured by a colorimeter (CR-200, Konica Minolta Holdings, Inc.) before the ultraviolet radiation on the day of the start of application (day 1) and after 6 weeks (on the 43rd day of the test), and a ΔL* value was calculated by subtracting an L* value before the ultraviolet radiation from the L* value on 43rd day of the test. […] Therefore, it can be evaluated that, as the ΔL* value becomes larger (high numerical value), pigmentation is more inhibited.
Turning to `Cc1ccc(C(=O)NC(CS(=O)(=O)O)C(=O)O)cc1` [L-Isomer of Compound 3, N-(p-toluoyl)cysteic acid], the “ΔL* value” was −8.88 ± 0.54.

Staying with this experiment, now noted: concentration of 0.5%, applied to the skin.
In the case of `Cc1ccc(C(=O)NC(CS(=O)(=O)O)C(=O)O)cc1` [L-Isomer of Compound 3, N-(p-toluoyl)cysteic acid], the “suppression of ultraviolet-induced pigmentation (in words)” value was “clearly suppresses the pigmentation”.

(Values after patent US9066914B2, “Prophylactic or ameliorating agent for pigmentation” (POLA CHEMICAL INDUSTRIES INC., priority 2010, dated 2015).)
